According to patent publication US6737383B1, “Herbicidal oxadiazolidines” (priority 1999, dated 2004):

How the values were obtained:
common ragweed = test: Test D common ragweed; assay type: in vivo, Ambrosia elatior; conditions: Postemergence, 0 to 100 scale
bermuda-grass = test: Test D bermudagrass; assay type: in vivo, Cynodon dactylon; conditions: Postemergence, 0 to 100 scale
sandbur = test: Test D sandbur; assay type: in vivo, Cenchrus echinatus; conditions: Postemergence, 0 to 100 scale
Spanishneedles = test: Test D Spanishneedles; assay type: in vivo, Bidens bipinnata; conditions: Postemergence, 0 to 100 scale
Green foxtail [1] = test: Test D green foxtail; assay type: in vivo; conditions: Postemergence, 0 to 100 scale, 0 no injury, 100 complete control
Green foxtail [2] = test: Test D green foxtail; assay type: in vivo; conditions: Postemergence, 0 to 100 scale, 0 no injury, 100 complete control; remark: listed apart in the source
tall mallow = test: Test D tall mallow; assay type: in vivo, Malva sylvestris; conditions: Postemergence, 0 to 100 scale
Green foxtail [3] = test: Test D green foxtail; assay type: in vivo; conditions: Rate 250 g/ha; Postemergence; 0 to 100 scale
Green foxtail [4] = test: Test D green foxtail; assay type: in vivo; conditions: Postemergence, 0 to 100 scale, 0 no injury, 100 complete control; remark: listed apart in the source
Green foxtail [5] = test: Test D green foxtail; assay type: in vivo; conditions: Rate 250 g/ha; Postemergence; 0 to 100 scale; remark: listed apart in the source
guineagrass = test: Test D guineagrass; assay type: in vivo, Panicum maximum; conditions: Postemergence, 0 to 100 scale
common pursiane = test: Test D common purslane; assay type: in vivo, Portulaca oleracea; conditions: Postemergence, 0 to 100 scale
itchgrass = test: Test D itchgrass; assay type: in vivo, Rottboellia exaltata; conditions: Postemergence, 0 to 100 scale
pitted morningglory = test: Test D pitted morningglory; assay type: in vivo, Ipomoea lacunosa; conditions: Postemergence, 0 to 100 scale
surinam grass = test: Test D surinam grass; assay type: in vivo, Brachiaria decumbens; conditions: Postemergence, 0 to 100 scale
Johnson grass = test: Test D Johnson grass; assay type: in vivo, Sorghum halepense; conditions: Postemergence, 0 to 100 scale
Alexandergrass = test: Test D Alexandergrass; assay type: in vivo, Brachiaria plantaginea; conditions: Postemergence, 0 to 100 scale
common groundsel = test: Test D common groundsel; assay type: in vivo, Senecio vulgaris; conditions: Postemergence, 0 to 100 scale
[6] = Rate 16 g/ha, 0 no injury, 100 complete control
[7] = Rate 32 g/ha, 0 no injury, 100 complete control
[8] = Rate 64 g/ha, 0 no injury, 100 complete control
[9] = Rate 125 g/ha, 0 no injury, 100 complete control

CCC(CC)n1c(=O)on(C(=O)N(c2ccc(F)cc2)C(C)C)c1=O [Compound 358]
Plant response rating, C. ragweed (common ragweed; [6]): 0 | Plant response rating, C. ragweed (common ragweed; [7]): 0 | Plant response rating, C. ragweed (common ragweed; [8]): —30 | Plant response rating, C. ragweed (common ragweed; [9]): 70 | Plant response rating, C. ragweed (common ragweed; Rate 250 g/ha): 70 | Plant response rating, Bermudagrass (bermuda-grass; [6]): 0 | Plant response rating, Bermudagrass (bermuda-grass; [7]): 90 | Plant response rating, Bermudagrass (bermuda-grass; [8]): 100 | Plant response rating, Bermudagrass (bermuda-grass; [9]): 100 | Plant response rating, Bermudagrass (bermuda-grass; Rate 250 g/ha): 100 | Plant response rating, Sandbur (sandbur; [6]): 0 | Plant response rating, Sandbur (sandbur; [7]): 20 | Sandbur plant response rating (sandbur; [8]): 100 | Sandbur plant response rating (sandbur; [9]): 100 | Plant response rating, Sandbur (sandbur; Rate 250 g/ha): 90 | Plant response rating, Spanishneedles (Spanishneedles; [6]): 0 | Plant response rating, Spanishneedles (Spanishneedles; [7]): 0 | Spanishneedles plant response rating (Spanishneedles; [8]): 0 | Spanishneedles plant response rating (Spanishneedles; [9]): 0 | Plant response rating, Spanishneedles (Spanishneedles; Rate 250 g/ha): 0 | Green foxtail plant response rating (Green foxtail [1]; Rate 64 g/ha): 100 | Green foxtail plant response rating (Green foxtail [1]; Rate 125 g/ha): 100 | Plant response rating, Green foxtail (Green foxtail [2]; Rate 64 g/ha): 100 | Plant response rating, Green foxtail (Green foxtail [2]; Rate 125 g/ha): 100 | Plant response rating, Tall Mallow (tall mallow; [6]): 0 | Plant response rating, Tall Mallow (tall mallow; [7]): 30 | Tall Mallow plant response rating (tall mallow; [8]): 50 | Tall Mallow plant response rating (tall mallow; [9]): 70 | Plant response rating, Tall Mallow (tall mallow; Rate 250 g/ha): 80 | Plant response rating, Green foxtail (Green foxtail [3]): 100 | Plant response rating, Green foxtail (Green foxtail [4]; Rate 16 g/ha): 0 | Plant response rating, Green foxtail (Green foxtail [4]; Rate 32 g/ha): 30 | Plant response rating, Green foxtail (Green foxtail [5]): 100 | Plant response rating, Guineagrass (guineagrass; [6]): 0 | Plant response rating, Guineagrass (guineagrass; [7]): 0 | Guineagrass plant response rating (guineagrass; [8]): 20 | Plant response rating, Guineagrass (guineagrass; [8]): 100 | Plant response rating, Guineagrass (guineagrass; [9]): 100 | Plant response rating, Guineagrass (guineagrass; Rate 250 g/ha): 100 | Plant response rating, C. purslane (common pursiane; [6]): 0 | Plant response rating, C. purslane (common pursiane; [7]): 0 | Plant response rating, C. purslane (common pursiane; [8]): 0 | Plant response rating, C. purslane (common pursiane; [9]): 0 | Plant response rating, C. purslane (common pursiane; Rate 250 g/ha): 0 | Plant response rating, Itchgrass (itchgrass; [6]): 0 | Plant response rating, Itchgrass (itchgrass; [7]): 0 | Plant response rating, Itchgrass (itchgrass; [8]): 0 | Plant response rating, Itchgrass (itchgrass; [9]): 0 | Plant response rating, Itchgrass (itchgrass; Rate 250 g/ha): 100 | Plant response rating, P. morninglory (pitted morningglory; [6]): 0 | Plant response rating, P. morninglory (pitted morningglory; [7]): 0 | Plant response rating, P. morninglory (pitted morningglory; [8]): 0 | Plant response rating, P. morninglory (pitted morningglory; [9]): 0 | Plant response rating, P. morninglory (pitted morningglory; Rate 250 g/ha): 0 | Plant response rating, Surinam grass (surinam grass; [6]): 0 | Plant response rating, Surinam grass (surinam grass; [7]): 0 | Surinam grass plant response rating (surinam grass; [8]): 0 | Surinam grass plant response rating (surinam grass; [9]): 50 | Plant response rating, Surinam grass (surinam grass; Rate 250 g/ha): 50 | Plant response rating, Johnsongrass (Johnson grass; [6]): 0 | Plant response rating, Johnsongrass (Johnson grass; [7]): 0 | Plant response rating, Johnsongrass (Johnson grass; [8]): 0 | Plant response rating, Johnsongrass (Johnson grass; [9]): 0 | Plant response rating, Johnsongrass (Johnson grass; Rate 250 g/ha): 100 | Plant response rating, Alexandergrass (Alexandergrass; [6]): 0 | Plant response rating, Alexandergrass (Alexandergrass; [7]): 0 | Plant response rating, Alexandergrass (Alexandergrass; [8]): 100 | Plant response rating, Alexandergrass (Alexandergrass; [9]): 90 | Plant response rating, Alexandergrass (Alexandergrass; Rate 250 g/ha): 100 | Plant response rating, Com. groundsel (common groundsel; [6]): 0 | Plant response rating, Com. groundsel (common groundsel; [7]): 0 | Plant response rating, Com. groundsel (common groundsel; [8]): 0 | Plant response rating, Com. groundsel (common groundsel; Rate 250 g/ha): 40
